Source: patent US20070134261A1, “Effectors of innate immunity” (priority 2001, published 2007)
Converted amounts (≈) assume the structure as drawn. Read-outs that look alike come from different tables or passages of the source. Marks after values point to notes of the source that are not given here. Starred links: 1 amine or outer side, 2 acyl side, 3 side chain; linkers in the order of their positions; H or OH if unused. Positions of bridges follow the written chain, without caps; N, C: chain ends. Non-standard residues stand in square brackets, D forms with d. Residues, ends and D or L forms follow the SMILES beside them. Chains are numbered I, II in the order given. Actinocin(9to1) = Cc1c2oc3c(C)ccc(C(=O)[*:1])c3nc-2c(C(=O)[*:2])c(N)c1=O; NMeV = CN[C@H](C(=O)O)C(C)C; Sar = CNCC(=O)O

Experiments:
Human Jurkat T cells = experiment: SDF-1 induced migration of human Jurkat T cells (Transwell); assay type: cell-based; conditions: positive control 100%
Procedure: SDF-1, a C-X-C chemokine is a natural ligand for HIV-1 coreceptor-CXCR4. The chemokine receptors CXCR4 and CCR5 are considered to be potential targets for the inhibition of HIV-1 replication. […] The migration assays were performed as follows. Human Jurkat T cells were resuspended to 5×10^6/ml in chemotaxis medium (RPMI 1640/10 mM Hepes/0.5% BSA). Migration assays were performed in 24 well plates using […] polycarbonate Transwell inserts (Costar). Briefly, peptide or controls were diluted in chemotaxis medium and placed in the lower chamber while 0.1 ml cells (5×10^6/ml) was added to the upper chamber. After 3 hr at 37° C., the number of cells that had migrated into the lower chamber was determined using flow cytometry. The medium from the lower chamber was passed through a FACscan for 30 seconds, gating on forward and side scatter to exclude cell debris. The number of live cells was compared to a “100% migration control” in which 5×10^5/ml cells had been pipetted directly into the lower chamber and then counted on the FACscan for 30 seconds.

S. Typhimurium SL1344 = experiment: Intracellular survival/replication of S. Typhimurium SL1344 in IFN-γ-primed RAW cells (gentamicin-resistance assay); assay type: cell-based, Salmonella Typhimurium; conditions: pretreated with inhibitor 30 min prior to infection (50 μM U 0126, 50 μM PD 98059)
S. aureus = experiment: Murine S. aureus infection model (CD-1 mice); assay type: in vivo, mouse; conditions: peptide 200 μg IP
Procedure: (§1) BALB/c mice were given 1×10^5 Salmonella and cationic peptide (200 μg) by intraperitoneal injection. The mice were monitored for 24 hours at which point they were euthanized, the spleen removed, homogenized and resuspended in PBS and plated on Luria Broth agar plates with Kanamycin (50 μg/ml). The plates were incubated overnight at 37° C. and counted for viable bacteria (Table 49 and 50). CD-1 mice were given 1×10^8 S. aureus in 5% porcine mucin and cationic peptide (200 μg) by intraperitoneal injection (Table 51). The mice were monitored for 3 days at which point they were euthanized, blood removed and plated for viable counts. CD-1 male mice were given 5.8×10^6 CFU EHEC bacteria and cationic peptide (200 μg) by intraperitoneal (IP) injection and monitored for 3 days (Table 52). […] Many of the cationic peptides were shown not to be directly antimicrobial as tested by the Minimum Inhibitory Concentration (MIC) assay (Table 54).

BALB/c mice = experiment: Lethal endotoxemia in galactosamine-sensitized BALB/c mice; assay type: in vivo; conditions: 2 μg LPS; peptide 200 μg/mouse = 8 mg/kg IP 15 min after LPS; 48 hours; no peptide 10
Salmonella = Salmonella infection in BALB/c mice (viable bacteria in spleen); assay type: in vivo, mouse; conditions: mouse, in vivo, ip
Procedure: as §1

[1] = assay type: cell-based
[2] = test system: RAW 264.7 mouse macrophage cells; assay type: cell-based; conditions: Peptide 20 μg/ml; 100 ng/ml E. coli 0111:B4 LPS, 6 h
[3] = test system: Human monocytic cells, THP-1; experiment: LPS-induced TNFα secretion by THP-1 cells (ELISA)
HBE cells [4] = experiment: WST-1 assay (cell viability); assay type: cell-based, human
Procedure, shortened: (§2)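 Both read-outs were colorimetric at OD490 on HBE cells after 24 h with 100 μg of each peptide. The WST-1 assay reported viability through mitochondrial dehydrogenase cleavage of the tetrazolium salt. The LDH assay tested the removed supernatant for enzyme leaked from membrane-damaged cells.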

THP-1 cells [5] = test system: THP-1 cells
[6] = test system: human bronchial epithelial cells (HBE); experiment: LDH release assay (Cytotoxicity Detection Kit); assay type: cell-based; conditions: 100 μg/ml, 24 hours; no peptide control 1.0 ± 0.05
Procedure, shortened: as §2

HBE cells [7] = conditions: 50 μg/ml, 4 h
[8] = test system: A549 human epithelial cells; experiment: Induction of chemokines (IL-8, MCP-1) in A549 cells (ELISA); assay type: cell-based; conditions: peptide 10 ug/ml, 24 hr
Procedure: The murine macrophage cell line RAW 264.7, THP-1 cells (human monocytes), a human epithelial cell line (A549), human bronchial epithelial cells (16HBEo14), and whole human blood were used. HBE cells were grown in MEM with Earle's. THP-1 cells were grown and maintained in RPMI 1640 medium. The RAW and A549 cell lines were maintained in DMEM supplemented with 10% fetal calf serum. […] DMEM was aspirated from cells grown overnight and replaced with fresh medium. After incubation of the cells with peptide, the release of chemokines into the culture supernatant was determined by ELISA (R&D Systems, Minneapolis, Minn.).

THP-1 cells [9] = experiment: Quantitative real-time PCR (qPCR) in THP-1 cells; assay type: cell-based, human; conditions: 4 μg/ml, within 1 hour of treatment (data not shown)
Procedure: Quantitative real-time PCR (qPCR)—Differential gene expression identified by microarray analysis was validated using quantitative real-time PCR (qPCR) using SuperScriptTM III Platinum® Two-Step qRT-PCR Kit with SYBR® Green (Invitrogen Life Technologies), as per the manufacturer's instructions, in the ABI PRISMS® 7000 sequence detection system (Applied Biosystems, Foster city, Calif., USA). Briefly, 1 μg of total RNA was reverse transcribed in a 20 μl reaction volume for 50 min at 42° C., the reaction was terminated by incubating for 5 min at 85° C. and then digested for 30 min at 37° C. with RNAse H. The PCR reaction was carried out in a 12.5 μl reaction volume containing 2.5 μl of 1/10 diluted cDNA template. A melting curve was performed to ensure that any product detected was specific to the desired amplicon. Fold changes were calculated after normalization to endogenous GAPDH and using the comparative Ct method (Pfaffl MW. A new mathematical model for relative quantification in real-time RT-PCR. Nucleic Acids Res 2001; 29:No. 9 e45).

## SDF-1
Human Jurkat T cells; Experiment 1, SDF-1 (100 ng/ml) alone
  Migration (%): 32%
Human Jurkat T cells; Experiment 2, SDF-1 (100 ng/ml) alone
  Migration (%): 40%

## N#CC(=C(/N)Sc1ccccc1N)/C(C#N)=C(\N)Sc1ccccc1N [U 0126]
S. Typhimurium SL1344
  Effect: bacterial filamentation (bacterial stress): Decrease bacterial filamentation (bacterial stress)^c
  Effect: number of intracellular S. Typhimurium: Increase in the number of intracellular S. Typhimurium

## CC[C@H](C)[C@H](NC(=O)[C@H](CCCNC(=N)N)NC(=O)[C@H](CS)NC(=O)[C@H](CC(C)C)NC(=O)[C@@H](N)CC(C)C)C(=O)N[C@H](C(=O)N1CCC[C@H]1C(=O)N[C@H](C(=O)N[C@H](C(=O)N1CCC[C@H]1C(=O)N[C@@H](Cc1c[nH]c2ccccc12)C(=O)N[C@@H](CS)C(=O)N[C@@H](CCCCN)C(=O)O)[C@@H](C)CC)C(C)C)C(C)C [SEQ ID NO: 5] (H-LLCRIVPVIPWCK-OH; N-terminus and C-terminus assumed)
S. aureus; 3 days, No Peptide 7.61 ± 1.7 × 10^3
  CFU/ml (blood): 3.28 ± 1.7 × 10^3 CFU/ml
S. aureus; No Peptide 6/8
  # Mice Survived (3 days)/Total mice in group: 4/4
BALB/c mice
  Survival: 17%
Salmonella
  Viable Bacteria in the Spleen: 2.75 ± 0.59 × 10^4 CFU/ml
[1]; 24 h
  MIC, C. rhod.: 64 µg/mL (≈ 41.6 µM)
  MIC, E. coli: 128 µg/mL (≈ 83.1 µM)
  MIC, EHEC: 64 µg/mL (≈ 41.6 µM)
[1]; Staphylococcus aureus, overnight, 96-well plate
  MIC, S. aureus: >
[2]
  Inhibition of TNF-α: 65.6 ± 1.6%

## CC[C@@]1([C@@H]2O[C@@H]([C@H]3O[C@@](O)(CO)[C@H](C)C[C@@H]3C)C[C@@H]2C)CC[C@H]([C@]2(C)CC[C@]3(C[C@H](O)[C@@H](C)[C@@H]([C@@H](C)[C@@H](OC)[C@H](C)C(=O)O)O3)O2)O1 [Monensin]
[3]; LPS stimulation for 60 min
  TNFα within cells (cytoplasmic extracts): accumulation of TNFα within cells

## CC[C@H](C)[C@H](NC(=O)[C@H](CCCCN)NC(=O)[C@H](CCC(=O)O)NC(=O)[C@H](CCCCN)NC(=O)[C@H](CO)NC(=O)[C@H](CCCCN)NC(=O)[C@H](CCCNC(=N)N)NC(=O)[C@H](Cc1ccccc1)NC(=O)[C@H](Cc1ccccc1)NC(=O)[C@H](CC(=O)O)NC(=O)CNC(=O)[C@H](CC(C)C)NC(=O)[C@@H](N)CC(C)C)C(=O)NCC(=O)N[C@@H](CCCCN)C(=O)N[C@@H](CCC(=O)O)C(=O)N[C@@H](Cc1ccccc1)C(=O)N[C@@H](CCCCN)C(=O)N[C@@H](CCCNC(=N)N)C(=O)N[C@H](C(=O)N[C@H](C(=O)N[C@@H](CCC(N)=O)C(=O)N[C@@H](CCCNC(=N)N)C(=O)N[C@H](C(=O)N[C@@H](CCCCN)C(=O)N[C@@H](CC(=O)O)C(=O)N[C@@H](Cc1ccccc1)C(=O)N[C@@H](CC(C)C)C(=O)N[C@@H](CCCNC(=N)N)C(=O)N[C@@H](CC(N)=O)C(=O)N[C@@H](CC(C)C)C(=O)N[C@H](C(=O)N1CCC[C@H]1C(=O)N[C@@H](CCCNC(=N)N)C(=O)N[C@H](C(=O)N[C@@H](CCC(=O)O)C(=O)N[C@@H](CO)C(=O)O)[C@@H](C)O)C(C)C)[C@@H](C)CC)C(C)C)[C@@H](C)CC [SEQ ID NO: 1, reference compound]
HBE cells [4]
  OD490 nm (WST-1 cell viability): 1.62 ± 0.34 OD490 nm
THP-1 cells [5]
  cytotoxicity: not cytotoxic
[1]; Citobacter rhodensis, overnight, 96-well plate
  MIC, C. rhod.: 8 µg/mL (≈ 1.78 µM)
[1]; Enterohaemorrhagic E. coli, overnight, 96-well plate
  MIC, EHEC: 4 µg/mL (≈ 0.89 µM)
[1]; Escherichia coli, overnight, 96-well plate
  MIC, E. coli: 32 µg/mL (≈ 7.12 µM)
[1]; Pseudomonas aeruginosa, overnight, 96-well plate
  MIC, P. aerug.: 96 µg/mL (≈ 21.4 µM)
[1]; Salmonella enteritidis ssp. typhimurium, overnight, 96-well plate
  MIC, S. typhim.: 64 µg/mL (≈ 14.2 µM)
[6]
  LDH Release (OD490 nm): 1.18 ± 0.05 OD490 nm
HBE cells [7]
  Ratio of SEQ ID NO: 1-treated:control, L41559 6-pyruvoyl-tetrahydropterin synthase/dimerization cofactor of hepatocyte nuclear factor 1 alpha: 0.20
  Ratio of SEQ ID NO: 1-treated:control, NM_000120 epoxide hydrolase 1, microsomal: 0.22

## CC[C@H](C)[C@H](NC(=O)[C@H](CS)NC(=O)[C@H](CCSC)NC(=O)[C@H](CCCNC(=N)N)NC(=O)[C@@H](N)CCCNC(=N)N)C(=O)N[C@@H](CCCCN)C(=O)N[C@H](C(=O)N[C@@H](CS)C(=O)N[C@H](C(=O)N[C@@H](CCCNC(=N)N)C(=O)NCC(=O)N[C@H](C(=O)N[C@@H](CS)C(=O)N[C@@H](CCCNC(=N)N)C(=O)N[C@@H](CCCNC(=N)N)C(=O)N[C@@H](CCCCN)C(=O)N[C@@H](CS)C(=O)N[C@@H](CCCNC(=N)N)C(=O)N[C@@H](CCCCN)C(=O)O)C(C)C)C(C)C)C(C)C [SEQ ID NO: 26] (H-RRMCIKVCVRGVCRRKCRK-OH; N-terminus and C-terminus assumed)
BALB/c mice
  Survival: 0%
HBE cells [4]
  OD490 nm (WST-1 cell viability): 1.42 ± 0.11 OD490 nm
Salmonella
  Viable Bacteria in the Spleen: 7.1 ± 1.37 × 10^4 CFU/ml
[1]; 24 h
  MIC, C. rhod.: 2 µg/mL (≈ 0.851 µM)
  MIC, E. coli: 0.5 µg/mL (≈ 0.213 µM)
  MIC, EHEC: 0.5 µg/mL (≈ 0.213 µM)
  MIC, P. aerug.: 64 µg/mL (≈ 27.2 µM)
  MIC, S. aureus: 32 µg/mL (≈ 13.6 µM)
  MIC, S. typhim.: 2 µg/mL (≈ 0.851 µM)
[2]
  Inhibition of TNF-α: 54.9 ± 1.6%
[8]
  IL-8: 0.201 ng/mL
[6]
  LDH Release (OD490 nm): 0.93 ± 0.04 OD490 nm

## COc1cccc(-c2cc(=O)c3ccccc3o2)c1N [PD 98059]
S. Typhimurium SL1344
  Effect: bacterial filamentation (bacterial stress): Decrease bacterial filamentation (bacterial stress)^c
  Effect: number of intracellular S. Typhimurium: Increase in the number of intracellular S. Typhimurium

## Cc1c2oc3c(C)ccc(C(=O)N[C@@H]4C(=O)N[C@H](C(C)C)C(=O)N5CCC[C@H]5C(=O)N(C)CC(=O)N(C)[C@@H](C(C)C)C(=O)O[C@@H]4C)c3nc-2c(C(=O)N[C@@H]2C(=O)N[C@H](C(C)C)C(=O)N3CCC[C@H]3C(=O)N(C)CC(=O)N(C)[C@@H](C(C)C)C(=O)O[C@@H]2C)c(N)c1=O [Actinomycin D] (I: T[dV]P[Sar][NMeV] / II: T[dV]P[Sar][NMeV]; ester I:1-I:C, II:1-II:C; linker I:N-II:N via Actinocin(9to1))
[3]; 4 μg/ml, LPS-stimulated THP-1 cells
  reduction of TNFα release: 97.6%
THP-1 cells [9]
  inhibition of LPS-induced transcription of TNFα and TNFAIP2 genes: more than 96%

## SEQ 1D 1 (LLGDFFRKSKEKIGKEFKRIVQRIKDFLRNLVPRTES)
Human Jurkat T cells; Experiment 1, SDF-1 + peptide (50 μg/ml)
  Migration (%): 0%
Human Jurkat T cells; Experiment 2, SDF-1 + peptide (50 μg/ml)
  Migration (%): 0%
